Source: ChEMBL document CHEMBL1201862, “PubChem BioAssay data set” (2004)
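These data come from cells grown in 96-well plates and exposed to compound for 48 hours at five concentrations. The concentration for 50% growth inhibition is given as GI50.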 Activity calls are given as the source filed them. Cut-off read from the data, not from the text of the source: active = GI50 up to about 1.1 µM and inactive = higher.

Legend:
Experiment in all cases: NCI anticancer screen, dose series, 48 h
[1] = test system: 786-0
[2] = test system: NCI-H522
[3] = test system: TK-10
[4] = test system: CCRF-CEM
[5] = test system: PC-3
[6] = test system: NCI-H460
[7] = test system: SK-OV-3
[8] = test system: MOLT-4
[9] = test system: HOP-92
[10] = test system: SF-539
[11] = test system: SK-MEL-2
[12] = test system: SW-620
[13] = test system: SK-MEL-28
[14] = test system: K562
[15] = test system: UACC-257
[16] = test system: COLO 205
[17] = test system: IGROV-1
[18] = test system: HL-60
[19] = test system: UACC-62
[20] = test system: NCI/ADR-RES

For `C1CN1c1nc(N2CC2)nc(N2CC2)n1`, the GI50 [1] was 2.97 µM (inactive), the GI50 [2] was 5.21 µM (inactive) and the GI50 [3] was 24 µM (inactive). The GI50 [4] was 0.82 µM (active), the GI50 [5] was 12.3 µM (inactive) and the GI50 [6] was 0.41 µM (active). The GI50 [7] was 8.87 µM (inactive), the GI50 [8] was 0.495 µM (active) and the GI50 [9] was 10 µM (inactive). For the same molecule, the GI50 [10] was 2.68 µM (inactive), the GI50 [11] was 17.7 µM (inactive) and the GI50 [12] was 11 µM (inactive). The GI50 [13] was 14.3 µM (inactive), the GI50 [14] was 10.4 µM (inactive) and the GI50 [15] was 10.7 µM (inactive). For the same molecule, the GI50 [16] was 13.6 µM (inactive), the GI50 [17] was 14.2 µM (inactive) and the GI50 [18] was 0.649 µM (active). The GI50 [19] was 1.84 µM (inactive) and the GI50 [20] was 5.42 µM (inactive).
`N#CC(C#N)=C(N)/C(C#N)=C/c1cc(O)c(O)c(Br)c1` was tested, and the GI50 [1] was > 78.2 µM (inactive), the GI50 [2] was 40.5 µM (inactive) and the GI50 [3] was > 100 µM (inactive). The GI50 [4] was 28.2 µM (inactive), the GI50 [5] was 92.5 µM (inactive) and the GI50 [6] was 38.1 µM (inactive). The GI50 [7] was > 93.1 µM (inactive), the GI50 [8] was 36.2 µM (inactive) and the GI50 [9] was 46 µM (inactive). The GI50 [10] was 44.1 µM (inactive), the GI50 [11] was 90.6 µM (inactive) and the GI50 [12] was 51.6 µM (inactive). The GI50 [13] was > 100 µM (inactive), the GI50 [14] was 46.6 µM (inactive) and the GI50 [15] was 72.4 µM (inactive). For the same molecule, the GI50 [16] was 52.2 µM (inactive), the GI50 [17] was > 65.2 µM (inactive) and the GI50 [18] was 28.1 µM (inactive). For the same molecule, the GI50 [19] was 39.4 µM (inactive) and the GI50 [20] was 36.4 µM (inactive).
`C=C1C(=O)OC2CC3(CO3)C3C(O)C(O)CC3(C)CC12` (stereo not given) was tested, and the GI50 [1] was 76.9 µM (inactive), the GI50 [2] was 12.3 µM (inactive) and the GI50 [3] was 35.6 µM (inactive). The GI50 [4] was 15.2 µM (inactive), the GI50 [5] was 45.8 µM (inactive) and the GI50 [6] was 34.9 µM (inactive). The GI50 [7] was > 100 µM (inactive), the GI50 [8] was 17.8 µM (inactive) and the GI50 [9] was 27.6 µM (inactive). For the same molecule, the GI50 [10] was 19.1 µM (inactive), the GI50 [11] was 16 µM (inactive) and the GI50 [12] was 16.6 µM (inactive). For the same molecule, the GI50 [13] was 17.4 µM (inactive), the GI50 [14] was 27.5 µM (inactive) and the GI50 [15] was 39.2 µM (inactive). The GI50 [16] was 29.9 µM (inactive), the GI50 [17] was 35.6 µM (inactive) and the GI50 [18] was 12.7 µM (inactive). The GI50 [19] was 16.6 µM (inactive) and the GI50 [20] was 38.8 µM (inactive).
In the case of `O=[N+]([O-])/C(Cl)=C(\NCCO)C(Cl)=C(Cl)Cl`, the GI50 [1] is reported as 45 µM (inactive), the GI50 [2] is reported as 21.7 µM (inactive) and the GI50 [3] is reported as > 89.3 µM (inactive). The GI50 [4] was 16.9 µM (inactive), the GI50 [5] was 87.3 µM (inactive) and the GI50 [6] was > 100 µM (inactive). For the same molecule, the GI50 [7] was > 100 µM (inactive), the GI50 [8] was 20.7 µM (inactive) and the GI50 [9] was > 84.5 µM (inactive). The GI50 [10] was > 100 µM (inactive), the GI50 [11] was > 100 µM (inactive) and the GI50 [12] was 41.3 µM (inactive). For the same molecule, the GI50 [13] was > 85.7 µM (inactive), the GI50 [14] was 8.2 µM (inactive) and the GI50 [15] was > 100 µM (inactive). For the same molecule, the GI50 [16] was 27.5 µM (inactive), the GI50 [17] was > 100 µM (inactive) and the GI50 [18] was 4.35 µM (inactive). The GI50 [19] was 45.2 µM (inactive) and the GI50 [20] was 61.1 µM (inactive).
With `CN(C)Cc1cc(/N=N/c2ccc(Cl)cc2)cc(CN(C)C)c1O` the GI50 [1] was 5.53 µM (inactive), the GI50 [2] was 1.77 µM (inactive) and the GI50 [3] was 5.94 µM (inactive). The GI50 [4] was 2.1 µM (inactive), the GI50 [5] was 5.41 µM (inactive) and the GI50 [6] was 5.15 µM (inactive). The GI50 [7] was 17.1 µM (inactive), the GI50 [8] was 2.75 µM (inactive) and the GI50 [9] was 2.45 µM (inactive). The GI50 [10] was 10 µM (inactive), the GI50 [11] was 12.9 µM (inactive) and the GI50 [12] was 8.09 µM (inactive). The GI50 [13] was 11.7 µM (inactive), the GI50 [14] was 2.52 µM (inactive) and the GI50 [15] was 16.2 µM (inactive). The GI50 [16] was 3.99 µM (inactive), the GI50 [17] was 3.38 µM (inactive) and the GI50 [18] was 1.44 µM (inactive). The GI50 [19] was 13.9 µM (inactive) and the GI50 [20] was 3.07 µM (inactive).
In the case of `Fc1cc(-c2cc(-c3ccc4c(c3)OCO4)n[nH]2)c(Cl)cc1Cl`, the GI50 [1] is reported as 1.84 µM (inactive), the GI50 [2] is reported as 4.1 µM (inactive) and the GI50 [3] is reported as 3 µM (inactive). For the same molecule, the GI50 [4] was 11.9 µM (inactive), the GI50 [5] was 3.62 µM (inactive) and the GI50 [6] was 3.61 µM (inactive). For the same molecule, the GI50 [7] was 2.13 µM (inactive), the GI50 [8] was > 32.2 µM (inactive) and the GI50 [9] was 2.26 µM (inactive). For the same molecule, the GI50 [10] was 2.31 µM (inactive), the GI50 [11] was 15.8 µM (inactive) and the GI50 [12] was 4.6 µM (inactive). For the same molecule, the GI50 [13] was 5.22 µM (inactive), the GI50 [14] was 4.45 µM (inactive) and the GI50 [15] was 9.82 µM (inactive). For the same molecule, the GI50 [16] was 3.42 µM (inactive), the GI50 [17] was 1.71 µM (inactive) and the GI50 [18] was > 100 µM (inactive). The GI50 [19] was 1.46 µM (inactive) and the GI50 [20] was 3.33 µM (inactive).
`COc1c(O)cc2oc(-c3ccc(O)cc3)cc(=O)c2c1O` [HISPIDULIN] was tested, and the GI50 [1] was 60.1 µM (inactive), the GI50 [2] was 36.2 µM (inactive) and the GI50 [3] was 39.2 µM (inactive). For the same molecule, the GI50 [4] was 20.6 µM (inactive), the GI50 [5] was 34.2 µM (inactive) and the GI50 [6] was 30.8 µM (inactive). The GI50 [7] was 48.2 µM (inactive), the GI50 [8] was 25.4 µM (inactive) and the GI50 [9] was 2.91 µM (inactive). The GI50 [10] was 27 µM (inactive), the GI50 [11] was 27.2 µM (inactive) and the GI50 [12] was 34.1 µM (inactive). The GI50 [13] was 45.7 µM (inactive), the GI50 [14] was 34.8 µM (inactive) and the GI50 [15] was > 100 µM (inactive). The GI50 [16] was 90.4 µM (inactive), the GI50 [17] was 22.7 µM (inactive) and the GI50 [18] was 24.5 µM (inactive). For the same molecule, the GI50 [19] was 19 µM (inactive) and the GI50 [20] was 36.1 µM (inactive).
In the case of `CCCCCCCCCCCC(=O)OC[C@@H](C[As](=O)(O)O)OC(=O)CCCCCCCCCCC`, the GI50 [1] is reported as 13.4 µM (inactive), the GI50 [2] is reported as 2.47 µM (inactive) and the GI50 [3] is reported as 11.6 µM (inactive). The GI50 [4] was 16.2 µM (inactive), the GI50 [5] was 2.43 µM (inactive) and the GI50 [6] was 3.61 µM (inactive). The GI50 [7] was 12.4 µM (inactive), the GI50 [8] was 5.51 µM (inactive) and the GI50 [9] was 1.71 µM (inactive). For the same molecule, the GI50 [10] was 12.6 µM (inactive), the GI50 [11] was 2.69 µM (inactive) and the GI50 [12] was 15 µM (inactive). The GI50 [13] was 4.54 µM (inactive), the GI50 [14] was 5.75 µM (inactive) and the GI50 [15] was 16.4 µM (inactive). For the same molecule, the GI50 [16] was 17 µM (inactive), the GI50 [17] was 1.85 µM (inactive) and the GI50 [18] was 2.95 µM (inactive). The GI50 [19] was 2.52 µM (inactive) and the GI50 [20] was 17.3 µM (inactive).
For `C=C(C)[C@@H]1CC[C@]2(C)CC[C@]3(C)[C@H](CC[C@@H]4[C@@]5(C)CC[C@H](OC(=O)c6ccccc6)C(C)(C)[C@@H]5CC[C@]43C)[C@@H]12`, the GI50 [1] was > 100 µM (inactive), the GI50 [2] was > 100 µM (inactive) and the GI50 [3] was > 100 µM (inactive). For the same molecule, the GI50 [4] was > 100 µM (inactive), the GI50 [5] was > 100 µM (inactive) and the GI50 [6] was > 100 µM (inactive). The GI50 [7] was > 100 µM (inactive), the GI50 [8] was > 100 µM (inactive) and the GI50 [9] was > 100 µM (inactive). For the same molecule, the GI50 [10] was > 100 µM (inactive), the GI50 [11] was > 100 µM (inactive) and the GI50 [12] was > 100 µM (inactive). The GI50 [13] was > 100 µM (inactive), the GI50 [14] was > 100 µM (inactive) and the GI50 [15] was > 100 µM (inactive). For the same molecule, the GI50 [16] was > 100 µM (inactive), the GI50 [17] was > 100 µM (inactive) and the GI50 [18] was > 100 µM (inactive). For the same molecule, the GI50 [19] was > 100 µM (inactive) and the GI50 [20] was > 100 µM (inactive).
For `Nc1ccc2nc3n(c(=O)c2c1)CCCCC3`, the GI50 [1] was > 100 µM (inactive), the GI50 [2] was > 100 µM (inactive) and the GI50 [3] was > 100 µM (inactive). For the same molecule, the GI50 [4] was > 100 µM (inactive), the GI50 [5] was > 100 µM (inactive) and the GI50 [6] was > 100 µM (inactive). The GI50 [7] was > 100 µM (inactive), the GI50 [8] was > 100 µM (inactive) and the GI50 [9] was > 100 µM (inactive). The GI50 [10] was > 100 µM (inactive), the GI50 [11] was > 100 µM (inactive) and the GI50 [12] was > 100 µM (inactive). The GI50 [13] was > 100 µM (inactive), the GI50 [14] was > 100 µM (inactive) and the GI50 [15] was > 100 µM (inactive). For the same molecule, the GI50 [16] was > 100 µM (inactive), the GI50 [17] was > 100 µM (inactive) and the GI50 [18] was > 100 µM (inactive). For the same molecule, the GI50 [19] was > 100 µM (inactive) and the GI50 [20] was > 100 µM (inactive).
